The results in this text go back to PMC6568410, “A scorpion venom peptide derivative BmKn‒22 with potent antibiofilm activity against Pseudomonas aeruginosa” (PLoS ONE, 2019).

Data set [1] relates to P. aeruginosa PAO1 biofilm formation. Nature of the data set: Biofilm formation assay, crystal violet staining. It counts as cell-based, Pseudomonas aeruginosa. Particulars: for reduction of P. aeruginosa biofilms: 24 h, compared with untreated control, result in words. The protocol:
The effect of BmKn‒2 peptide and derivatives on biofilm formation of P. aeruginosa PAO1 was determined according to the method published previously with some modifications. Briefly, 100 μL of the test peptides was plated into the wells of flat-bottomed 96-well microtiter plates (Nunc™, Roskilde, Denmark) at the final concentrations of 200 ‒ 800 μM. Aliquots of the P. aeruginosa PAO1 suspension were then inoculated to the wells of 96-well microtiter plates to obtain a final concentration of 10^6 CFU/mL. Culture without the test peptides was used as the untreated control. After incubation at 37 ^OC for 24 h without agitation, planktonic cells were removed and the plates were gently rinsed twice with phosphate buffered saline (PBS) pH 7.4. Biofilms were then stained with 0.1% crystal violet solution (Merck, Darmstadt, Germany) for 10 minutes at room temperature. Excess stains were rinsed off with PBS pH 7.4 and the plates were left dry at 37 ^OC for 2 h. Subsequently, biofilm biomass was solubilized with 30% acetic acid and the optical density (OD) measured at 550 nm using a microplate reader (BioTek Synergy HT).

The test system of a further data set is P. aeruginosa PAO1. Nature of the data set: Growth assay, standard plate counts. It counts as cell-based, Pseudomonas aeruginosa. Particulars: 800 µM, 24 h; for effect on bacterial counts (growth): compared with untreated control, result in words. The method, then:
The effects of BmKn‒2 peptide and its derivatives on growth of P. aeruginosa PAO1 were carried out as described previously with some modifications. Bacterial suspension (10^6 CFU/mL) and the test peptides (800 μM, final concentration) were incubated at 37 ^OC at 150 rpm. Bacterial culture without the test peptides was used as the untreated control. After 24 h, bacterial concentration was evaluated. Cultures from each treatment were taken and 10-fold serial dilution was performed; 100 μL of each dilution was then spread on LB agar plates. Following incubation at 37°C for 24 h, the colonies were counted and expressed as log10 CFU/mL.

Another data set relates to sheep red blood cells. The data set is described as follows: Hemolytic assay. The settings on record: 800 µM, 37 °C, 1 h. It counts as cell-based. The protocol:
Hemolytic activity of the test peptides was assayed according to a protocol described previously. Suspension of 2% sheep red blood cells (100 μL) prepared in PBS pH 7.4 was incubated with 100 μL of the test peptides (800 μM, final concentration). After incubation at 37 ^OC for 1 h, the suspension was centrifuged at 1,000 g for 5 min followed by transferring 100 μL of the supernatant to 96 well-microtiter plate (Nunc). Released hemoglobin was then determined by measuring an absorbance at 405 nm using a microplate reader (BioTek Synergy HT). Positive and negative controls in this assay were 1% Triton X-100 and PBS pH 7.4, respectively. Hemolysis (%) was calculated using an equation: (OD405 nm peptide ‒ OD405 nm PBS pH 7.4)/(OD405 nm 1% Triton X-100 ‒ OD405 nm PBS pH 7.4) × 100.

The test system of data set [2] is L929 mouse fibroblast cells. The data set is described as follows: Cytotoxicity, MTT assay. It counts as cell-based. The settings on record: 800 µM, 24 h; for effect on viability of L929 cells: compared with untreated control, result in words; for Cell viability (%): L929 cells. The protocol:
The toxicity of the test peptides against L929 mouse fibroblast cells was assessed by 3-(4,5-dimethylthiazol-2-yl)-2,5-diphenyltetrazolium bromide (MTT) assay. L929 mouse fibroblast cells from American Type Culture Collection (ATCC, Manassas, VA, USA) were cultured in Dulbecco's Modified Eagle Medium (DMEM; HyClone, Utah, USA) supplemented with 10% fetal bovine serum (Gibco, South America), 10 mM 4-(2-hydroxyethyl)-1 piperazineethanesulfonic acid (HEPES; HyClone, Utah, USA), 2 mM L-glutamine (Gibco, Brazil) and 100 U/mL penicillin and 100 μg/ml streptomycin (Gibco, USA) in a 5% CO2 atmosphere at 37°C. L929 cells (2×10^4 cells/well) were seeded in 96-well plates (Nunc) and incubated overnight. The culture medium was discarded and replaced by 100 μL of fresh DMEM containing the test compounds (final concentration 800 μM). Cells without the test compounds served as untreated control. After 24 h incubation, 20 μL of MTT solution (5 mg/mL; Sigma, St. Louis, MO, USA) was added and incubated for 3 h. The culture supernatant was removed and 100 μL dimethyl sulfoxide was added to each well to dissolve the formazan crystals. The absorbance was measured at 540 nm on a microplate reader (BioTek Synergy HT). Percentage of cell viability was calculated according to the equation: (OD of treated cells/ OD of untreated cells) × 100.
(In general: Tetrazolium assays rely on reduction of a dye to a coloured formazan, in cell work by metabolically active cells.)

Data set [3] relates to P. aeruginosa PAO1 established biofilms. Nature of the data set: Established (24 h-preformed) biofilm assay, crystal violet staining. It counts as cell-based, Pseudomonas aeruginosa. The method, then: Antibiofilm activity of the test peptides was also examined against established biofilms as follows. Aliquots of the P. aeruginosa PAO1 suspension adjusted to a final concentration of 10^6 CFU/mL were seeded into the wells of flat-bottomed 96-well microtiter plates (Nunc). Biofilms were established at 37°C for 24 h. After incubation, nonadherent planktonic cells were removed by gently washing the wells with sterile PBS pH 7.4. Preformed biofilms were then treated with the test peptides at concentrations of 200 ‒ 800 μM and incubated at 37°C for 24 h. Culture without the test peptides served as the untreated control. After the incubation, the test peptides were aspirated gently and the plates were rinsed twice with PBS pH 7.4. Biofilm biomass was subsequently quantified by 0.1% crystal violet staining as previously described.

Setting [4] is: 37 °C, 150 rpm, plate counts, untreated control 9.183, mean of 3 independent experiments.
Setting [5] is: Exp. 1 (untreated control 9.082).
The mark [6] stands for this setting: Exp. 2 (untreated control 9.198).
Setting [7] is: Exp. 3 (untreated control 9.268).

Where no end group is shown, it is not given here.

With FIGAIARLL [BmKn-24], the “reduction of P. aeruginosa biofilms” value in data set [1] (800 µM) was “less biofilm reduction activities”. Further, the “Bacterial growth, Log10 CFU/mL” value is reported as 9.313 Log10 CFU/mL with P. aeruginosa PAO1 (setting [4]), 9.304 Log10 CFU/mL with P. aeruginosa PAO1 (setting [5]), 9.273 Log10 CFU/mL with P. aeruginosa PAO1 (setting [6]) and 9.364 Log10 CFU/mL in the data set with P. aeruginosa PAO1 (setting [7]). In the data set with P. aeruginosa PAO1, the “effect on bacterial counts (growth)” value is given as “no significant (P > 0.05) differences in bacterial counts”. The “lysis of red blood cells” value with sheep red blood cells is “less or no hemolysis”. Moreover, the “effect on viability of L929 cells” value in data set [2] is “low effects on cell viability”. Moreover, the “Cell viability (%)” value in data set [2] (Exp. 1) stood at 84.274%; in data set [2] (Exp. 2) it was 81.538%; in data set [2] (Exp. 3), 83.751%.
With “FIGAIARLLSKIF [BmKn-2, reference compound]”, the “reduction of P. aeruginosa biofilms” value in data set [1] (800 µM) is on record as “marked reduction”. In addition, the “Bacterial growth, Log10 CFU/mL” value with P. aeruginosa PAO1 (setting [4]) stood at 6.872 Log10 CFU/mL; in the data set on P. aeruginosa PAO1 (setting [5]), 6.755 Log10 CFU/mL; with P. aeruginosa PAO1 (setting [6]) it was 6.448 Log10 CFU/mL; in the data set on P. aeruginosa PAO1 (setting [7]), 7.411 Log10 CFU/mL. Also, the “effect on bacterial counts (growth)” value in the data set with P. aeruginosa PAO1 is “reduction in bacterial counts”. Besides, the “effect on viability of L929 cells” value in data set [2] is on record as “significant decrease (P < 0.001) in viability”. The “Cell viability (%)” value in data set [2] (Exp. 1) was 2.236%; in data set [2] (Exp. 2) it was 2.027%; in data set [2] (Exp. 3), 1.988%.
As to FIGAIAR [BmKn-26], the “reduction of P. aeruginosa biofilms” value in data set [1] (800 µM) was “less biofilm reduction activities”. In addition, the “Bacterial growth, Log10 CFU/mL” value in the data set with P. aeruginosa PAO1 (setting [4]) was 9.247 Log10 CFU/mL; with P. aeruginosa PAO1 (setting [5]), 9.213 Log10 CFU/mL; in the data set on P. aeruginosa PAO1 (setting [6]), 9.213 Log10 CFU/mL; with P. aeruginosa PAO1 (setting [7]), 9.314 Log10 CFU/mL. Besides, the “effect on bacterial counts (growth)” value with P. aeruginosa PAO1 is “no significant (P > 0.05) differences in bacterial counts”. Further, in the data set on sheep red blood cells, the “lysis of red blood cells” value was “less or no hemolysis”. Besides, in data set [2], the “effect on viability of L929 cells” value was “low effects on cell viability”. The “Cell viability (%)” value in data set [2] (Exp. 1) came out at 85.233%; in data set [2] (Exp. 2), 87.113%; in data set [2] (Exp. 3), 79.724%.
As to FIGAIARLLS [BmKn-23], the “Biofilm inhibition (%), biofilm formation” value in data set [1] (200 µM, Exp. 1) amounted to 28.654%; in data set [1] (200 µM, Exp. 2), 28.944%; in data set [1] (200 µM, Exp. 3), 40.209%; in data set [1] (400 µM, Exp. 1), 34.053%; in data set [1] (400 µM, Exp. 2), 36.612%; in data set [1] (400 µM, Exp. 3), 46.402%. Besides, the “Biofilm inhibition (%), biofilm formation” value in data set [1] (800 µM, Exp. 1) is reported as 44.669%; in data set [1] (800 µM, Exp. 2) it was 49.083%; in data set [1] (800 µM, Exp. 3), 70.992%. Besides, the “reduction of P. aeruginosa biofilms” value in data set [1] (800 µM) was “marked reduction”. Moreover, the “Biofilm inhibition (%), preformed biofilm” value in data set [3] (200 µM, Exp. 1) was found to be 0.000%; in data set [3] (200 µM, Exp. 2), 3.802%; in data set [3] (200 µM, Exp. 3), 6.512%; in data set [3] (400 µM, Exp. 1), 12.191%; in data set [3] (400 µM, Exp. 2), 4.570%; in data set [3] (400 µM, Exp. 3), 0.000%. Moreover, the “Biofilm inhibition (%), preformed biofilm” value in data set [3] (800 µM, Exp. 1) is reported as 3.155%; in data set [3] (800 µM, Exp. 2), 0.000%; in data set [3] (800 µM, Exp. 3), 8.639%. Also, the “% inhibition of 24 h-preformed P. aeruginosa biofilms” value in data set [3] (range over 200 - 800 µM, 24 h treatment) is listed as “No eradication activity”. Further, the “Bacterial growth, Log10 CFU/mL” value was 9.429 Log10 CFU/mL in the data set on P. aeruginosa PAO1 (setting [4]), 9.488 Log10 CFU/mL in the data set on P. aeruginosa PAO1 (setting [5]), 9.359 Log10 CFU/mL with P. aeruginosa PAO1 (setting [6]) and 9.440 Log10 CFU/mL in the data set with P. aeruginosa PAO1 (setting [7]). Besides, the “effect on bacterial counts (growth)” value in the data set on P. aeruginosa PAO1 was “no significant (P > 0.05) differences in bacterial counts”. Besides, the “lysis of red blood cells” value in the data set with sheep red blood cells was “less or no hemolysis”. The “effect on viability of L929 cells” value in data set [2] was “low effects on cell viability”. Besides, the “Cell viability (%)” value came out at 80.383% in data set [2] (Exp. 1), 84.400% in data set [2] (Exp. 2) and 88.135% in data set [2] (Exp. 3).
FIGAIARLLSKI [BmKn-21]: in data set [1] (800 µM), the “reduction of P. aeruginosa biofilms” value was “marked reduction”. The “Bacterial growth, Log10 CFU/mL” value is 6.183 Log10 CFU/mL in the data set on P. aeruginosa PAO1 (setting [4]), 6.000 Log10 CFU/mL in the data set with P. aeruginosa PAO1 (setting [5]), 6.314 Log10 CFU/mL in the data set with P. aeruginosa PAO1 (setting [6]) and 6.236 Log10 CFU/mL with P. aeruginosa PAO1 (setting [7]). In addition, the “effect on bacterial counts (growth)” value in the data set with P. aeruginosa PAO1 is “reduction in bacterial counts”. The “effect on viability of L929 cells” value in data set [2] was “significant decrease (P < 0.001) in viability”. Moreover, the “Cell viability (%)” value in data set [2] (Exp. 1) was determined as 1.974%; in data set [2] (Exp. 2) it was 1.699%; in data set [2] (Exp. 3), 1.835%.
Take FIGAIARL [BmKn-25]: the “reduction of P. aeruginosa biofilms” value in data set [1] (800 µM) is “less biofilm reduction activities”. The “Bacterial growth, Log10 CFU/mL” value is 9.293 Log10 CFU/mL in the data set on P. aeruginosa PAO1 (setting [4]), 9.255 Log10 CFU/mL in the data set on P. aeruginosa PAO1 (setting [5]), 9.288 Log10 CFU/mL in the data set with P. aeruginosa PAO1 (setting [6]) and 9.335 Log10 CFU/mL with P. aeruginosa PAO1 (setting [7]). For the same substance, the “effect on bacterial counts (growth)” value in the data set with P. aeruginosa PAO1 was “no significant (P > 0.05) differences in bacterial counts”. Moreover, the “lysis of red blood cells” value with sheep red blood cells is given as “less or no hemolysis”. Besides, the “effect on viability of L929 cells” value in data set [2] is recorded as “low effects on cell viability”. Also, the “Cell viability (%)” value is 82.909% in data set [2] (Exp. 1), 93.165% in data set [2] (Exp. 2) and 83.012% in data set [2] (Exp. 3).
